Data: patent publication US12304905B2, “Pharmaceutical salts of benzothiazol compounds, polymorphs and methods for preparation thereof” (priority 2019, dated 2025)

Experiments:
Assay type in all cases: physicochemical
[1] = Solubility tests of mono- and di-hydrochloride in bio-relevant media by HPLC; settings: for solubility at 17 h: 37 °C, thermodynamic from solid; for pH: after shaking 17 hrs at 37° C.
Method: Solubilities of mono-hydrochloride and di-hydrochloride salt forms in biorelevant media were tested at 37° C. Details of procedures were listed as below: About 15 mg obtained salts were weighed in 2 mL vials, respectively. Then 1.0 mL bio-relevant media (SGF, FaSSIF and FeSSIF) were added into the vials. All the vials were placed on the thermo-mixer and kept at 37° C. (700 r/min). After shaking at 37° C. for 17 hrs, clear solutions obtained by centrifugation were analyzed by HPLC after being diluted by ACN/water (1v/1v) for 10-50 times. And pH value of all systems were measured.

[2] = Dry grinding and wet granulation, physical stability in the milling process
Method: Dry grinding and wet granulation were carried out to test physical stability of (1S,2S)-2-fluoro-N-(6-(4-methylpyridin-3-yl)benzo[d]thiazol-2-yl)cyclopropane-1-carboxamide mono-hydrochloride in the milling process.
(§1) For dry grinding experiment, about 50 mg of (1S,2S)-2-fluoro-N-(6-(4-methylpyridin-3-yl)benzo[d]thiazol-2-yl)cyclopropane-1-carboxamide mono-hydrochloride was added into mortar and grinded by pestle for about 5 mins. Residual solids were then characterized by XRPD.
as §1, with “wet granulation” for “dry grinding”, “and then several drops of solvent EtOH were added until the solids were fully wetted. Wet solids were” for “and”, “mins manually and residual” for “mins. Residual”

[3] = Polymorph screening study of mono-hydrochloride (slurry, heating-cooling, slow evaporation, anti-solvent); settings: slow evaporation and anti-solvent methods, starting from Pattern I
Method: About 50 mg of (1S,2S)-2-fluoro-N-(6-(4-methylpyridin-3-yl)benzo[d]thiazol-2-yl)cyclopropane-1-carboxamide mono-hydrochloride was suspended into 1.0 mL selected pure or binary solvents in 2.0 mL glass vials. The suspensions were placed on the thermo-mixer with the speed of 700 r/m in at 25° C. and 50° C. After 4 days, slurries and suspensions were centrifuged (8,000 r/m in, 5 mins) and residual solids were dried in the vacuum oven at 35° C. for 4 hrs.
About 50 mg of (1S,2S)-2-fluoro-N-(6-(4-methylpyridin-3-yl)benzo[d]thiazol-2-yl)cyclopropane-1-carboxamide mono-hydrochloride was suspended into 1.0 mL selected pure or binary solvents in 2.0 mL glass vials at 50° C. stirring with the speed of 500 r/min. Then the suspensions were filtered through 0.45 μm filters into clean 2.0 mL glass vials and placed on the hot-plate stirring with 500 r/m in at 50° C. After stirring at 50° C. for 1.5 hrs, the system was cooled to 25° C. After stirring at 25° C. for 16 hrs, some solids came out from MeOH, EtOH/H2O (5/1, v/v) and acetone/H2O (5/1, v/v) systems, while very few solids came out from EtOH system. Then MeOH, EtOH/H2O (5/1, v/v) and acetone/H2O (5/1, v/v) systems were centrifuged at 10000 r/min for 5 mins and residual solids were dried in the vacuum oven at 35° C. for 3 hrs. Obtained dry solids were then characterized by XRPD. […]

[4] = Solubility of mono-hydrochloride in solvents; settings: in MeOH, DMF, DMSO and water

Question: With `Cc1ccncc1-c1ccc2nc(NC(=O)[C@@H]3C[C@@H]3F)sc2c1.Cl` [Mono-hydrochloride, (1S,2S)-2-fluoro-N-(6-(4-methylpyridin-3-yl)benzo[d]thiazol-2-yl)cyclopropane-1-carboxamide mono-hydrochloride] as the compound, how does the solubility at 17 h ([1]; pH 1.88, simulated gastric fluid) read?
Answer: Its solubility at 17 h is over 13900 µg/mL.

Question: What about the solubility at 17 h ([1]; pH 5.07, fessif) of the same compound?
Answer: Its solubility at 17 h is 130 µg/mL.

Question: And the solubility at 17 h ([1]; pH 6.62, fassif)?
Answer: The solubility at 17 h was 7840 µg/mL.

Question: What about the pH ([1]; FaSSIF (pH = 6.62)) of the same compound?
Answer: Its pH is 2.01.

Question: What about the pH ([1]; FeSSIF (pH = 5.07)) of the same compound?
Answer: Its pH is 3.83.

Question: What about the pH ([1]; SGF (pH = 1.88)) of the same compound?
Answer: Its pH is 1.89.

Question: What about the “crystallinity of residual solids (XRPD)” value ([2]; after dry grinding) of the same compound?
Answer: Its value is “decreased”.

Question: And the “crystalline form (XRPD)” value ([2]; after dry grinding or wet granulation process)?
Answer: Its value is “not changed”.

Question: What about the “XRPD pattern in polymorph screening” value [3] of the same compound?
Answer: The value was “No new XRPD pattern was found”.

Question: And the solubility [4]?
Answer: The solubility was “relatively high solubility”.
